Test results reported in PMC5057115, “Cathelicidins in the Tasmanian devil (Sarcophilus harrisii)” (Scientific Reports, 2016).
Where no end group is shown, it is not given here.

System: human red blood cells
Assay type: cell-based
Conditions: red cells of human, 24 h
Procedure: Tissue expression of devil cathelicidin prepropeptides was determined by real-time PCR on a range of secretory, immune, reproductive, gastrointestinal and respiratory tissues, as well as BLAST searches of the milk transcriptome. Opportunistic tissue samples for real-time PCR were collected from Taronga Zoo (Sydney) from devils which were subject to euthanasia due to old age and advanced disease. […] Ltd. and their antimicrobial activity against bacterial and fungal pathogens determined by broth microdilution susceptibility assay according to clinical laboratory standards institute guidelines. Antimicrobial activity was expressed as minimum inhibitory concentration (MIC). Cytotoxicity was assessed in the human cell line A549 and haemolytic activity determined against human blood. Statistical significance of peptide effect on cell survival in comparison to the untreated control was calculated using a one sample t-test. Pouch microbiome analysis was performed on swabs from the pouch of lactating and non-lactating devils to detect changes in microbe populations. Pouch swab collection was carried out in accordance with the Save the Tasmanian Devil Program and was approved by the Animal Ethics Committee of the University of Sydney (permit number 681). page 3: […] Two antibiotics, ampicillin and tetracycline, were included as a positive control for bacteria, and the […] A well containing cells and media only was used as a “no drug” control to ensure that cultures grew normally. Bacteria were subcultured on Mueller Hinton agar (MHA) or Sheep blood agar (BA) for 24 hours at 35 °C for Staphylococcus spp., Pseudomonas spp., Enterococcus spp. and E.coli, with 5% CO2 for Streptococcus spp., K.pneumoniae, P.multocida, […] Similarly, fungi were subcultured on Sabouraud agar (SAB) at 35 °C for 24 hours prior to the test. Colonies were resuspended in saline and the OD530 measured with a McFarland reader. If necessary the suspension was diluted to 0.45-0.55 McFarland units with saline. […] Assays Antimicrobial activity was expressed as minimum inhibitory concentration (MIC), which was defined as the lowest concentration of cathelicidin preventing visible growth, relative to the negative control. Colonies which grew on agar plates were also counted. Cytotoxicity Cytotoxicity was assessed in the human A549 cell line maintained in Dulbecco’s Modification of Eagle’s Medium (DMEM) supplemented with 10% foetal bovine serum (FBS), 2mM L -glutamine, 50units/mL penicillin and 50μg/mL streptomycin. […] Following incubation for a further 24 hours, cell viability was determined using alamar blue (Invitrogen) which was added to each well. […]

Sequence: KRMGIFHLFWAGLRKLGNLIKNKIQQGIENFLG [Saha-CATH3]
- haemolysis compared with the positive control: below 7%
